Assay: isobaric coefficient of expansion; xn = mol fraction of the nth substance listed
Details: calorimetric method

CCCCCCO [hexan-1-ol] + CCCCCC
isobaric coefficient of expansion
Details	5000 kPa	10000 kPa	15000 kPa	20000 kPa	25000 kPa	30000 kPa	35000 kPa	40000 kPa	45000 kPa	50000 kPa
328.15 K, x1 = 0.0321	0.00143 1/K	0.00135 1/K	0.00128 1/K	0.00122 1/K	0.00117 1/K	0.00112 1/K	0.00108 1/K	0.00104 1/K	0.00101 1/K	0.000976 1/K
328.15 K, x1 = 0.041	0.00143 1/K	0.00135 1/K	0.00128 1/K	0.00122 1/K	0.00117 1/K	0.00112 1/K	0.00108 1/K	0.00103 1/K	0.001 1/K	0.000972 1/K
328.15 K, x1 = 0.0946	0.00141 1/K	0.00133 1/K	0.00126 1/K	0.0012 1/K	0.00116 1/K	0.00111 1/K	0.00107 1/K	0.00103 1/K	0.001 1/K	0.000972 1/K
328.15 K, x1 = 0.1679	0.00136 1/K	0.0013 1/K	0.00123 1/K	0.00118 1/K	0.00113 1/K	0.00109 1/K	0.00105 1/K	0.00101 1/K	0.000982 1/K	0.000952 1/K
328.15 K, x1 = 0.2153	0.00134 1/K	0.00127 1/K	0.00121 1/K	0.00116 1/K	0.00112 1/K	0.00107 1/K	0.00104 1/K	0.000999 1/K	0.000971 1/K	0.000945 1/K
328.15 K, x1 = 0.3016	0.00129 1/K	0.00122 1/K	0.00117 1/K	0.00112 1/K	0.00108 1/K	0.00104 1/K	0.00101 1/K	0.000975 1/K	0.000948 1/K	0.000922 1/K
328.15 K, x1 = 0.4075	0.00123 1/K	0.00117 1/K	0.00113 1/K	0.00108 1/K	0.00104 1/K	0.00101 1/K	0.000977 1/K	0.000948 1/K	0.00092 1/K	0.000894 1/K
328.15 K, x1 = 0.503	0.00118 1/K	0.00113 1/K	0.00108 1/K	0.00104 1/K	0.00101 1/K	0.000979 1/K	0.000952 1/K	0.000922 1/K	0.000899 1/K	0.000877 1/K
328.15 K, x1 = 0.594	0.00113 1/K	0.00108 1/K	0.00105 1/K	0.00101 1/K	0.00098 1/K	0.000949 1/K	0.000921 1/K	0.000893 1/K	0.000872 1/K	0.000851 1/K
328.15 K, x1 = 0.6827	0.00108 1/K	0.00104 1/K	0.00101 1/K	0.000973 1/K	0.000945 1/K	0.000918 1/K	0.000891 1/K	0.000865 1/K	0.000843 1/K	0.000823 1/K
328.15 K, x1 = 0.8013	0.00102 1/K	0.000985 1/K	0.000957 1/K	0.000926 1/K	0.0009 1/K	0.000874 1/K	0.00085 1/K	0.000825 1/K	0.000808 1/K	0.000789 1/K
328.15 K, x1 = 0.8934	0.000972 1/K	0.000945 1/K	0.000917 1/K	0.000889 1/K	0.000869 1/K	0.000845 1/K	0.000823 1/K	0.000802 1/K	0.000783 1/K	0.000767 1/K
328.15 K, x1 = 1	0.000929 1/K	0.0009 1/K	0.000876 1/K	0.000854 1/K	0.000833 1/K	0.000813 1/K	0.000794 1/K	0.000776 1/K	0.000759 1/K	0.000745 1/K
348.15 K, x1 = 0.0321	0.00153 1/K	0.00141 1/K	0.00133 1/K	0.00126 1/K	0.00119 1/K	0.00114 1/K	0.00109 1/K	0.00105 1/K	0.00101 1/K	0.00098 1/K
348.15 K, x1 = 0.041	0.00152 1/K	0.00142 1/K	0.00133 1/K	0.00126 1/K	0.0012 1/K	0.00114 1/K	0.0011 1/K	0.00105 1/K	0.00101 1/K	0.00098 1/K
348.15 K, x1 = 0.0946	0.00151 1/K	0.00141 1/K	0.00133 1/K	0.00126 1/K	0.00119 1/K	0.00114 1/K	0.0011 1/K	0.00105 1/K	0.00102 1/K	0.000988 1/K
348.15 K, x1 = 0.1679	0.00147 1/K	0.00138 1/K	0.0013 1/K	0.00123 1/K	0.00118 1/K	0.00113 1/K	0.00108 1/K	0.00104 1/K	0.001 1/K	0.000967 1/K
348.15 K, x1 = 0.2153	0.00144 1/K	0.00135 1/K	0.00128 1/K	0.00122 1/K	0.00116 1/K	0.00111 1/K	0.00107 1/K	0.00103 1/K	0.000999 1/K	0.000968 1/K
348.15 K, x1 = 0.3016	0.00138 1/K	0.0013 1/K	0.00124 1/K	0.00118 1/K	0.00112 1/K	0.00108 1/K	0.00104 1/K	0.00101 1/K	0.000976 1/K	0.000944 1/K
348.15 K, x1 = 0.4075	0.00132 1/K	0.00125 1/K	0.00119 1/K	0.00113 1/K	0.00109 1/K	0.00105 1/K	0.00101 1/K	0.000981 1/K	0.00095 1/K	0.000924 1/K
348.15 K, x1 = 0.503	0.00126 1/K	0.0012 1/K	0.00114 1/K	0.0011 1/K	0.00106 1/K	0.00102 1/K	0.000989 1/K	0.000956 1/K	0.000929 1/K	0.000904 1/K
348.15 K, x1 = 0.594	0.00121 1/K	0.00115 1/K	0.0011 1/K	0.00106 1/K	0.00102 1/K	0.000993 1/K	0.00096 1/K	0.000928 1/K	0.000904 1/K	0.000882 1/K
348.15 K, x1 = 0.6827	0.00116 1/K	0.00111 1/K	0.00107 1/K	0.00103 1/K	0.000994 1/K	0.000963 1/K	0.000933 1/K	0.000903 1/K	0.000881 1/K	0.000859 1/K
348.15 K, x1 = 0.8013	0.00109 1/K	0.00105 1/K	0.00101 1/K	0.000979 1/K	0.000947 1/K	0.00092 1/K	0.000892 1/K	0.000866 1/K	0.000845 1/K	0.000824 1/K
348.15 K, x1 = 0.8934	0.00104 1/K	0.001 1/K	0.00097 1/K	0.00094 1/K	0.000911 1/K	0.000886 1/K	0.000862 1/K	0.000838 1/K	0.000817 1/K	0.000797 1/K
348.15 K, x1 = 1	0.000995 1/K	0.00096 1/K	0.000929 1/K	0.000903 1/K	0.000875 1/K	0.000852 1/K	0.000831 1/K	0.000808 1/K	0.000791 1/K	0.000772 1/K
